Measurements: ChEMBL document CHEMBL1154909, “Dammarane-type glycosides from Gynostemma pentaphyllum and their effects on IL-4-induced eotaxin expression in human bronchial epithelial cells” (J Nat Prod, 2010)

Assays:
BEAS-2B = experiment: Antiinflammatory activity in human BEAS2B cells assessed as inhibition of IL4-induced eotaxin production after 48 hrs by ELISA pretreated for 2 hrs before IL4 challenge; assay type: functional, cell-based
[1] = Antiinflammatory activity in human BEAS2B cells assessed as inhibition of IL4 and TNF-alpha-induced eotaxin production at 10 uM after 48 hrs by ELISA pretreated for 2 hrs before IL4 and TNFalpha challenge; assay type: functional, BEAS-2B
[2] = Antiinflammatory activity in human BEAS2B cells assessed as inhibition of IL4 and TNF-alpha-induced eotaxin production after 48 hrs by ELISA pretreated for 2 hrs before IL4 and TNFalpha challenge (Rvb= 450+/-38.4 pg/mL); assay type: functional, BEAS-2B
[3] = Cytotoxicity against human BEAS2B cells at 10 uM after 48 hrs by MTT assay; assay type: cell-based; conditions: beas-2b
[4] = Cytotoxicity against human BEAS2B cells at 10 uM after 48 hrs by MTT assay in the presence of IL4; assay type: cell-based; conditions: beas-2b
[5] = Antiinflammatory activity in human BEAS2B cells assessed as inhibition of IL4-induced eotaxin production at 10 uM after 48 hrs by ELISA pretreated for 2 hrs before IL4 challenge (reference value: 58.5+/-4.7 ng/mL); assay type: functional, BEAS-2B

Row | SMILES | Activity (BEAS-2B) | Activity [1] [pg/mL] | Activity [2] [pg/mL] | Activity [3] | Activity [4] | Activity [5] [pg/mL]
1 | CC(=O)OC[C@H]1O[C@@H](O[C@H]2[C@H](O[C@@](C)(CCC=C(C)C)[C@H]3CC[C@]4(C)[C@@H]3[C@H](O)C[C@@H]3[C@@]5(C)C[C@@H](O)[C@H](O[C@@H]6O[C@H](CO)[C@@H](O)[C@H](O)[C@H]6O)C(C)(C)[C@@H]5CC[C@]34C)O[C@H](CO)[C@@H](O)[C@@H]2O)[C@H](O)[C@@H](O)[C@@H]1O | Dose-dependent effect | 157.2 |  |  |  | 
2 | CC(C)=CCC[C@](C)(O[C@@H]1O[C@H](CO[C@@H]2OC[C@@H](O)[C@H](O)[C@H]2O)[C@@H](O)[C@H](O)[C@H]1O)[C@H]1CC[C@]2(C)[C@@H]1[C@H](O)C[C@@H]1[C@@]3(C)C[C@@H](O)[C@H](O[C@@H]4O[C@H](CO)[C@@H](O[C@@H]5O[C@H](CO)[C@@H](O)[C@H](O)[C@H]5O)[C@H](O)[C@H]4O)C(C)(C)[C@@H]3CC[C@]12C | Dose-dependent effect |  | 197.2 | Non-toxic | Non-toxic | 
3 | COc1ccc2ccc(=O)oc2c1CC=C(C)C [OSTHOLE] |  | 187.3 |  |  |  | 16.8
